This passage reports IC50 results from patent publication US6242494A, “Substituted β-amino acid inhibitors of methionine aminopeptidase-2” (Abbott Laboratories, priority 1999, dated 2001).

Structures can show the parent of a compound that is named as a salt.

The target of this experiment is T1, methionine aminopeptidase-2 (MetAP2) (Homo sapiens, UniProt P50579).
T1 construct: made in house; host or cells: insect cells, baculovirus system (secreted, purified from culture supernatant)
T1 sequence (P50579 whole entry): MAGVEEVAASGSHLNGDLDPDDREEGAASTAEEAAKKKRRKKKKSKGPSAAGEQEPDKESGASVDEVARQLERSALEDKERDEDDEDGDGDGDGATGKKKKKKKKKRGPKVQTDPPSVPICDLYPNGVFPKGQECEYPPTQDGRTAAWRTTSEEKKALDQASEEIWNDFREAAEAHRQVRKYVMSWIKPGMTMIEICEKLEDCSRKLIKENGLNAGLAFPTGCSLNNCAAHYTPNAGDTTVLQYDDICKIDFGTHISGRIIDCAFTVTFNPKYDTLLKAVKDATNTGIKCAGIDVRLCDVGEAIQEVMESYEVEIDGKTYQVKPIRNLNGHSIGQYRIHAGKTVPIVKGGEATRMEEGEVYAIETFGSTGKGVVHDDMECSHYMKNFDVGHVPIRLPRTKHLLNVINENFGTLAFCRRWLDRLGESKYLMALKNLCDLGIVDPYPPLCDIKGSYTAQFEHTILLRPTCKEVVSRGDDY
The experiment is described as follows: Inhibition of MetAP2 enzyme activity (96-well, Met-Ala-Ser substrate, L-amino acid oxidase/peroxidase/ortho-dianisidine, 450 nm). Type of experiment: biochemical. Conditions: IC50, recombinant MetAP2 4 μg/mL, pH 7.4, Met-Ala-Ser substrate, 20 minutes. The procedure: The ability of compounds of the present invention to inhibit methionine aminopeptidase 2 was evaluated using the following assay.
Assays for MetAP2 enzyme activity and MetAP2 inhibition were performed in 96-well microtiter plates. Compounds to be tested for MetAP2 inhibition were dissolved in dimethyl-sulfoxide at 10 mM and diluted ten-fold in assay buffer ([…], pH 7.4, 100 mM NaCl). Ten microliters of solution of each compound to be tested for inhibition were introduced into each cell of the plate, with each compound being tested in triplicate.
The absorbence at 450 nanometers was measured every 20 seconds over a period of twenty minutes using an automaic plate reader (Molecular Devices, CA, USA). The Vmax in mOD/min, calculated for each well was used to represent MetAP2 activity. The IC50 for each inhibitor was obtained by plotting the remaining MetAP2 activity versus inhibitor concentration.
Take `N[C@H](CC1CCCCC1)C(O)C(=O)NCc1ccc(C(F)(F)F)cc1` (mixture of isomers) [Example 158, (2RS,3R)-3-amino-4-cyclohexyl-2-hydroxy-N-(4-(trifluoromethyl)benzyl)butanamide]: the IC50 (in general, the point on the concentration scale where inhibition reaches its midpoint) is 2800 nM.

With `C[C@H](NC(=O)C(O)[C@H](N)CC1CCCCC1)C(=O)NCCNc1ccc([N+](=O)[O-])cn1` (stereo partly drawn) [Example 62, ((2RS,3R)-3-amino-2-hydroxy-4-cyclohexyl)butanoyl-L-alanyl-(5-nitropyridylaminoethyl)amide dihydrochloride], the IC50 amounted to 7600 nM.

For `COc1ccc(CNC(=O)C(O)[C@H](N)CC2CCCCC2)cc1` (mixture of isomers) [Example 186, (2RS,3R)-3-amino-4-cyclohexyl-2-hydroxy-N-(4-methoxybenzyl)butanamide hydrochloride], the IC50 came to 1100 nM.

On to `N[C@H](CC1CCCCC1)C(O)C(=O)Nc1ccc(N2CCOCC2)cc1` (mixture of isomers) [Example 215, (2RS,3R)-3-amino-4-cyclohexyl-2-hydroxy-N-(4-(4-morpholinyl)phenyl)butanamide Hydrochloride], for which the IC50 came out at 1300 nM.

In the case of `N[C@H](CC1CCCCC1)C(O)C(=O)Nc1ccccc1Cl` (mixture of isomers) [Example 149, (2RS,3R)-3-amino-N-(2-chlorophenyl)-4-cyclohexyl-2-hydroxybutanamide], the 50% inhibitory concentration (IC50) amounted to 930 nM.

Consider `COc1cc(NC(=O)C(O)[C@H](N)CC2CCCCC2)cc(OC)c1OC` (mixture of isomers) [Example 225, (2RS,3R)-3-amino-4-cyclohexyl-2-hydroxy-N-(3,4,5-trimethoxyphenyl)butanamide Hydrochloride], for which the IC50 worked out at 350 nM.

Take `COc1cc(NC(=O)C(O)[C@H](N)CC2CCCCC2)cc(OC)c1` (mixture of isomers) [Example 161, (2RS,3R)-3-amino-4-cyclohexyl-N-(3,5-dimethoxyphenyl)-2-hydroxybutanamide hydrochloride]: the IC50 came out at 620 nM.

`CCOC(=O)[C@H](CF)NC(=O)C(O)[C@H](N)CC1CCCCC1` (stereo partly drawn) [Example 135, ethyl (2RS,3R,2'R)-2-((3-amino-4-cyclohexyl-2-hydroxybutanoyl)amino)-3-fluoropropanoate trifluoroacetate]: the IC50 worked out at 3200 nM.

With `COc1ccc(-c2ccccc2)cc1NC(=O)C(O)[C@H](N)CC1CCCCC1` (mixture of isomers) [Example 221, (2RS,3R)-3-amino-4-cyclohexyl-2-hydroxy-N-(4-methoxy(1,1'-biphenyl)-3-yl)butanamide Hydrochloride], the IC50 is 5400 nM.

Take `Cc1ccc(CCNC(=O)C(O)[C@H](N)CC2CCCCC2)cc1` (mixture of isomers) [Example 194, (2RS,3R)-3-amino-4-cyclohexyl-2-hydroxy-N-(4-methylphenethyl)butanamide hydrochloride]: the half-maximal inhibitory concentration (IC50) stood at 1400 nM.

Consider `CC(Cc1cccc(C(F)(F)F)c1)NC(=O)C(O)[C@H](N)CC1CCCCC1` (mixture of isomers) [Example 210, (2RS,3R)-3-amino-4-cyclohexyl-2-hydroxy-N-(1-methyl-2-(3-(trifluoromethyl)phenyl)ethyl)butanamide Hydrochloride], for which the IC50 was 2300 nM.

Regarding `N[C@H](CC1CCCCC1)C(O)C(=O)NCCCc1ccccc1` (mixture of isomers) [Example 109, (2RS,3R)-3-Amino-4-cyclohexyl-2-hydroxy-N-(3-phenylpropyl)butanamide Hydrochloride], the IC50 is 1700 nM.

On to `CSCC[C@@H](N)C(O)C(=O)NCCCc1ccccc1` (stereo partly drawn) [Example 6, (2RS,3R)-N-((3-phenylpropyl)-3-amino-2-hydroxy-5-(methylthio)pentanamide hydrochloride], for which the IC50 amounted to 3000 nM.

Take `CC(Cc1ccccc1F)NC(=O)C(O)[C@H](N)CC1CCCCC1` (mixture of isomers) [Example 226, (2RS,3R)-3-amino-4-cyclohexyl-N-(2-(2-fluorophenyl)-1-methylethyl)-2-hydroxybutanamide Hydrochloride]: the IC50 worked out at 970 nM.
